Data: article PMC8595372 (Nature Communications, 2021)
pIC50, pKd: −log10 of the molar value. Read-outs that look alike come from different tables or passages of the source.

What was measured:
DYRK1A = target: T1, DYRK1A (Homo sapiens, UniProt Q13627); assay: biochemical; parameters: nanoDSF thermal shift, Prometheus NT.48, 5 uM protein, ligand-induced melting temperature change versus buffer or DMSO control; conditions: for ΔTm at 1 µM / ΔTm at 10 µM / ΔTm at 100 µM: read-out: ΔTm to control (°C); for ΔTm to control (°C): binder
T1 construct: kinase domain, residues 127–485
Procedure: (§1) Nano-differential scanning fluorimetry measurements were performed for the determination of thermal protein stability using a Prometheus NT.48 (NanoTemper) device operating at the two wavelengths λ = 330 and 350 nm. […] The thermal stability was monitored from 20 to 70 °C at a heating rate of 1.5 °C/min using the PR.ThermControl software. […] Kinases were immobilized to the chip surface by amine coupling. […] Dissociation constants were determined based on fits applying a 1:1 interaction model. b Thermal protein stability measurements were performed using the NanoDSF technique. […] For raw data see Supplementary Table 3. Source data are provided as a Source Data file.

HIPK3 [1] = target: T2, HIPK3 (Homo sapiens, UniProt Q9H422); assay: radioactive in vitro kinase assay, His-c-Myc substrate; format: biochemical
T2 construct: kinase domain, residues 159–562
T2 sequence (Q9H422 159-562): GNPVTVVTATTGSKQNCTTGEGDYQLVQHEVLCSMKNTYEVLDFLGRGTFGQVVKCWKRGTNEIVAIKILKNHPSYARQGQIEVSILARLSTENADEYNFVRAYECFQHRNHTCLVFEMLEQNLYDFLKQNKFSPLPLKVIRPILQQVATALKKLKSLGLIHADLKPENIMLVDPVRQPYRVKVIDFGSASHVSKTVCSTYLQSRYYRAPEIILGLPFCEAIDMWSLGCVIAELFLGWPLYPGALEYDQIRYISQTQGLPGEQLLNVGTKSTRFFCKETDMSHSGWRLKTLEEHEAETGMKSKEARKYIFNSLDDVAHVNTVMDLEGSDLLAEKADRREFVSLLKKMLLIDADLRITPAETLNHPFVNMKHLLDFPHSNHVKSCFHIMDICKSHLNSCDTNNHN

HIPK3 [2] = target: T2, HIPK3; assay: ([…] Å) and SPR; kinase assay IC50 […]; format: binding
HIPK1 [3] = target: T3, HIPK1 (Homo sapiens, UniProt Q86Z02); assay: biochemical; parameters: nanoDSF thermal shift, Prometheus NT.48, 5 uM protein, ligand-induced melting temperature change versus buffer or DMSO control; conditions: read-out: ΔTm to control (°C)
T3 construct: residues 154-554
T3 sequence (Q86Z02 154-554): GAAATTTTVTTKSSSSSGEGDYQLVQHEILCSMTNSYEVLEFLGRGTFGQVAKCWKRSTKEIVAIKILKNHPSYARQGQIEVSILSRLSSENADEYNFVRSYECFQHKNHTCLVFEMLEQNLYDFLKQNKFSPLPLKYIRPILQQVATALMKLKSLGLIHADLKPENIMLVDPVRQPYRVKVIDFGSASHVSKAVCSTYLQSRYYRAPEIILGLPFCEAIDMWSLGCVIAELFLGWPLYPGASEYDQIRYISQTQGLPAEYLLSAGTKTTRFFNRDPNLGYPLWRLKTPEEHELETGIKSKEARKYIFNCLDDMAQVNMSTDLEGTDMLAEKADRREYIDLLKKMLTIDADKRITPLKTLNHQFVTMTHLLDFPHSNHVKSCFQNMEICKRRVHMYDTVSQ
Procedure: as §1

Cdk4 = target: T4, Cdk4 (Homo sapiens, UniProt P11802); assay: biochemical; parameters: nanoDSF thermal shift, Prometheus NT.48, 5 uM protein, ligand-induced melting temperature change versus buffer or DMSO control; conditions: read-out: ΔTm to control (°C)
T4 construct: full-length Cdk4 (residues 1–303) with Cyclin D3 (residues 1–292); with Cyclin D3
T4 sequence (P11802 whole entry, the tested form may be a part): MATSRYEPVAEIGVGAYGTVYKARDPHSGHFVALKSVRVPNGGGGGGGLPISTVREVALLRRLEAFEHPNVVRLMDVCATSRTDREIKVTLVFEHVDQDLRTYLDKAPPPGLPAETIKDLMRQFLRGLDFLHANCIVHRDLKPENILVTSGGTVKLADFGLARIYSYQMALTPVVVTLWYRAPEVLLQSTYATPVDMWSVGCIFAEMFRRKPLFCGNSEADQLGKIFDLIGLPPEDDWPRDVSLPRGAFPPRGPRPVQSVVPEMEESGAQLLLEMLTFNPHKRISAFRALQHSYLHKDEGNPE
T4 sequence (P30281 whole entry partner, the tested form may be a part): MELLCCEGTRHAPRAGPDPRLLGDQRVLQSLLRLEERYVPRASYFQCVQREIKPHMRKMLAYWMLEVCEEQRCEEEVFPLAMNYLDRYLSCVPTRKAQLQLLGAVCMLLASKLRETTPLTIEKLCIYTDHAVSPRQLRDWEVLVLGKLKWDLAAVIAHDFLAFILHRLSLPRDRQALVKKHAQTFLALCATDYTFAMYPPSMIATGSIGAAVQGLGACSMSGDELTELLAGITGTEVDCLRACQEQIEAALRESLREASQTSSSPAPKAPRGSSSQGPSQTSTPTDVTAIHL
Procedure: as §1

HIPK3 [4] = target: T2, HIPK3; assay: biochemical; parameters: nanoDSF thermal shift, Prometheus NT.48, 5 uM protein, ligand-induced melting temperature change versus buffer or DMSO control; conditions: read-out: ΔTm to control (°C)
Procedure: as §1

HIPK2 [5] = target: T5, HIPK2 (Homo sapiens, UniProt Q9H2X6); assay: biochemical; parameters: nanoDSF thermal shift, Prometheus NT.48, 5 uM protein, ligand-induced melting temperature change versus buffer or DMSO control; conditions: read-out: ΔTm to control (°C)
T5 construct: residues 160–563
T5 sequence (Q9H2X6 160-563): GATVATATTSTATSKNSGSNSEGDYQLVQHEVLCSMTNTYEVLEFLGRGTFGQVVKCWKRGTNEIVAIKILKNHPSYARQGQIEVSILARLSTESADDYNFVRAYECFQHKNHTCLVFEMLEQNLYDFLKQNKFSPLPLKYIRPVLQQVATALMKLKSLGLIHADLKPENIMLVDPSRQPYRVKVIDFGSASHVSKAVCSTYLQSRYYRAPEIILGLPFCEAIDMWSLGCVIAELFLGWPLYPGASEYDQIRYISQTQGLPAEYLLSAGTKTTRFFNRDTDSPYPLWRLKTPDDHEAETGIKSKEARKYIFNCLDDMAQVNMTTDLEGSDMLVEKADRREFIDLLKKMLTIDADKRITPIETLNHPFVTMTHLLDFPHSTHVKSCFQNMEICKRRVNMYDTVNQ
Procedure: as §1

Cdk9 = target: T6, Cdk9 (Homo sapiens, UniProt P50750); assay: biochemical; parameters: nanoDSF thermal shift, Prometheus NT.48, 5 uM protein, ligand-induced melting temperature change versus buffer or DMSO control; conditions: read-out: ΔTm to control (°C)
T6 construct: full-length Cdk9 (residues 1–372) with Cyclin T1 (residues 1–272); with Cyclin T1
T6 sequence (P50750 whole entry, the tested form may be a part): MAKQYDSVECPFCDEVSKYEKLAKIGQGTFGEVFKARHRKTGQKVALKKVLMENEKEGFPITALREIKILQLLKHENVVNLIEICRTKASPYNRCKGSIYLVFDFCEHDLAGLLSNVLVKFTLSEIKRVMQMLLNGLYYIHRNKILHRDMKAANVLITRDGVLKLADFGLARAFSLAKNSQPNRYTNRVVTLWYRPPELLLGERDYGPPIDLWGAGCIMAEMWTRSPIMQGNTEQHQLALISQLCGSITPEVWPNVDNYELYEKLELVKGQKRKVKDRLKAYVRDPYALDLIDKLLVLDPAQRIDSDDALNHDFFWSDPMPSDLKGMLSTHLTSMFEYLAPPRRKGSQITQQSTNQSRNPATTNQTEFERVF
T6 sequence (O60563 1-272 partner): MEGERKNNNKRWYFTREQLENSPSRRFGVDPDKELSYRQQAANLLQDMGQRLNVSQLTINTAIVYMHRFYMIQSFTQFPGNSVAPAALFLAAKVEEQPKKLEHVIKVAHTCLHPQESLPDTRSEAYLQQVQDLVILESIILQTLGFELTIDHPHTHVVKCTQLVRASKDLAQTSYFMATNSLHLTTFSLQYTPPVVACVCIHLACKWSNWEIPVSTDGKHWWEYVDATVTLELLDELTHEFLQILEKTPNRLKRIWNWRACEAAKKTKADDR
Procedure: as §1

HIPK2 [6] = target: T5, HIPK2; assay: SPR single-cycle kinetics; nanoDSF; kinase assay IC50 […]; format: binding
HIPK1 [7] = target: T3, HIPK1; assay: radioactive in vitro kinase assay; nanoDSF shift +[…] °C; format: biochemical

SMILES: Nc1ncnc2c1ncn2[C@@H]1O[C@H](COP(=O)(O)OP(=O)(O)O)[C@@H](O)[C@H]1O [ADP]
- ΔTm at 1 µM (DYRK1A): -0.1 °C
- ΔTm at 10 µM (DYRK1A): 0 °C
- ΔTm at 100 µM (DYRK1A): -0.1 °C

SMILES: Nc1ncnc2c1ncn2[C@@H]1O[C@H](COP(=O)(O)OP(=O)(O)OP(=O)(O)O)[C@@H](O)[C@H]1O [ATP]
- ΔTm to control (°C) (DYRK1A; 1 uM): -0.2 °C
- ΔTm to control (°C) (DYRK1A; 10 uM): +0.1 °C
- ΔTm to control (°C) (DYRK1A; 100 uM): 0.0 °C

SMILES: O=C1NC(=O)/C(=C/c2ccc3nccc(-c4ccncc4)c3c2)S1 [GSK1059615]
- pIC50 (HIPK3 [1]): 5.97

SMILES: CN(C)C[C@H]1CC[C@H](N2C(=O)NCc3cnc4ccc(-c5cc(Cl)c(O)c(Cl)c5)cc4c32)CC1 [HTH-01-091]
- pIC50 (HIPK3 [1]; read-out: IC50): 5.80

SMILES: CCN1CCN(Cc2ccc(Nc3ncc(F)c(-c4cc(F)c5nc(C)n(C(C)C)c5c4)n3)nc2)CC1 [abemaciclib]
- pKd (HIPK3 [2]): 9.10
- ΔTm at 1 µM (HIPK1 [3]): 0.4 °C
- ΔTm at 10 µM (HIPK1 [3]): 6.4 °C
- ΔTm at 100 µM (HIPK1 [3]): 8.7 °C
- ΔTm at 1 µM (DYRK1A): 0.6 °C
- ΔTm at 10 µM (DYRK1A): 3.1 °C
- ΔTm at 100 µM (DYRK1A): 5.2 °C
- ΔTm at 1 µM (Cdk4): 4.1 °C
- ΔTm at 100 µM (Cdk4): 7.9 °C
- ΔTm at 1 µM (HIPK3 [4]): 0.2 °C
- ΔTm at 10 µM (HIPK3 [4]): 5.3 °C
- ΔTm at 100 µM (HIPK3 [4]): 7.4 °C
- ΔTm at 1 µM (HIPK2 [5]): 1.5 °C
- ΔTm at 10 µM (HIPK2 [5]): 4.7 °C
- ΔTm at 100 µM (HIPK2 [5]): 7.2 °C
- ΔTm at 1 µM (Cdk9): 0.6 °C
- ΔTm at 10 µM (Cdk9): 2.4 °C
- pKd (HIPK2 [6]): 9.10
- pIC50 (HIPK1 [7]): 5.34
